Data reported in ChEMBL document CHEMBL1201862, “PubChem BioAssay data set” (2004).
Calls of active or inactive are those of the source.

Legend:
[1] = HIV-1 AD8 envelope cell-cell fusion blockers – cherry-pick, dose response (AID 652062); assay type: functional, cell-based;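 also: luciferase signal from cell-cell fusion driven by HIV-1 clade B AD8 Env; potency is for inhibitors of fusion seen as a drop in luminescence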
[2] = blockers of HIV-1 envelope-mediated cell-cell fusion – cherry-pick, dose response (AID 652057); assay type: functional, cell-based
[3] = general cell-killing toxicity readout – plate reader, dry powder samples, cytotoxicity control for PAX8 inhibitor project, dose response (AID 743021); assay type: functional, cell-based
[4] = molecular target: Paired box protein Pax-8 (Homo sapiens, UniProt Q06710); experiment: PAX8 transcriptional activity inhibition in RMG-I – RMG-I cells, luciferase, cherry-pick, dose response (AID 687027); assay type: functional, cell-based;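 also: luciferase reporter driven by Pax8 target thyroperoxidase promoter measured by SteadyGlo luminescence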
[5] = OVCAR-3 cell viability loss – plate reader, dry powder samples, PAX8 inhibitor project, dose response (AID 743044); assay type: functional, cell-based
[6] = molecular target: T1, 1-phosphatidylinositol 4,5-bisphosphate phosphodiesterase beta-3 (Homo sapiens, UniProt Q01970); experiment: Fluorescence-based biochemical high throughput dose response assay to identify inhibitors of phospholipase C isozymes (PLC-B3).
T1 sequence (Q01970 whole entry): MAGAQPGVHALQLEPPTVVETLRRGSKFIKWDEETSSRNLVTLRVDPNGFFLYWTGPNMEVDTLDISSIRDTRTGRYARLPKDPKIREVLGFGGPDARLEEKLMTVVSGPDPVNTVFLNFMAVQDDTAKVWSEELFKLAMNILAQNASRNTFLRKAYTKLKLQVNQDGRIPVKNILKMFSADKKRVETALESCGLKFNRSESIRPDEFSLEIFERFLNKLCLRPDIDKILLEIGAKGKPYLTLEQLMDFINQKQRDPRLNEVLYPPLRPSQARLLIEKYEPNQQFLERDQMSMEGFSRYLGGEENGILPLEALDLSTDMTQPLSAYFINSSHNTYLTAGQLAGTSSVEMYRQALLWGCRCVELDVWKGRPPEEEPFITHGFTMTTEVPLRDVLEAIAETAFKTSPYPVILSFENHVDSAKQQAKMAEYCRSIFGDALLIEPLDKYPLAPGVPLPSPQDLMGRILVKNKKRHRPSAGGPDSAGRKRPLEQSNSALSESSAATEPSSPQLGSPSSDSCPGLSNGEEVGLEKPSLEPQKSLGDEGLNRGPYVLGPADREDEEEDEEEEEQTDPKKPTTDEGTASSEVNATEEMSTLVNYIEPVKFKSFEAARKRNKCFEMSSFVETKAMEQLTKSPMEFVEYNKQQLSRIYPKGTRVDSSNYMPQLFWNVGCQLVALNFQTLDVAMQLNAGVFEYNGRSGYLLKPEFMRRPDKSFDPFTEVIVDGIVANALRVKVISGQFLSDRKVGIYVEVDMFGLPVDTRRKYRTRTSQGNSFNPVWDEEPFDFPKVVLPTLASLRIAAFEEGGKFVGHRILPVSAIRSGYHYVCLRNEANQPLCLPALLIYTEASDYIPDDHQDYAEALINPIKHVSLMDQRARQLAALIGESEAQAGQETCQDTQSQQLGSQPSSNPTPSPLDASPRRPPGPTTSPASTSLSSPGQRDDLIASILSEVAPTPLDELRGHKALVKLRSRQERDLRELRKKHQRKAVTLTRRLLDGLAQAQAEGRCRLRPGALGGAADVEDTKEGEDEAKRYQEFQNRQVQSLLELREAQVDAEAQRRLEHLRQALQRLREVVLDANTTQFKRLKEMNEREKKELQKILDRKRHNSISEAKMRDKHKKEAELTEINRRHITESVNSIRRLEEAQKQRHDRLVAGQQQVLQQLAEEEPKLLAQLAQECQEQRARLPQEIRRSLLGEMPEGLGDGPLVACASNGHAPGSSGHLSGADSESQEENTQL

[7] = molecular target: T2, 1-phosphatidylinositol 4,5-bisphosphate phosphodiesterase gamma-1 (Homo sapiens, UniProt P19174); experiment: Counterscreen for inhibitors of phospholipase C isozymes (PLC-B3): Fluorescence-based biochemical high throughput dose response assay to identify inhibitors of phospholipase C isozymes (PLC-gamma1).
T2 sequence (P19174 whole entry): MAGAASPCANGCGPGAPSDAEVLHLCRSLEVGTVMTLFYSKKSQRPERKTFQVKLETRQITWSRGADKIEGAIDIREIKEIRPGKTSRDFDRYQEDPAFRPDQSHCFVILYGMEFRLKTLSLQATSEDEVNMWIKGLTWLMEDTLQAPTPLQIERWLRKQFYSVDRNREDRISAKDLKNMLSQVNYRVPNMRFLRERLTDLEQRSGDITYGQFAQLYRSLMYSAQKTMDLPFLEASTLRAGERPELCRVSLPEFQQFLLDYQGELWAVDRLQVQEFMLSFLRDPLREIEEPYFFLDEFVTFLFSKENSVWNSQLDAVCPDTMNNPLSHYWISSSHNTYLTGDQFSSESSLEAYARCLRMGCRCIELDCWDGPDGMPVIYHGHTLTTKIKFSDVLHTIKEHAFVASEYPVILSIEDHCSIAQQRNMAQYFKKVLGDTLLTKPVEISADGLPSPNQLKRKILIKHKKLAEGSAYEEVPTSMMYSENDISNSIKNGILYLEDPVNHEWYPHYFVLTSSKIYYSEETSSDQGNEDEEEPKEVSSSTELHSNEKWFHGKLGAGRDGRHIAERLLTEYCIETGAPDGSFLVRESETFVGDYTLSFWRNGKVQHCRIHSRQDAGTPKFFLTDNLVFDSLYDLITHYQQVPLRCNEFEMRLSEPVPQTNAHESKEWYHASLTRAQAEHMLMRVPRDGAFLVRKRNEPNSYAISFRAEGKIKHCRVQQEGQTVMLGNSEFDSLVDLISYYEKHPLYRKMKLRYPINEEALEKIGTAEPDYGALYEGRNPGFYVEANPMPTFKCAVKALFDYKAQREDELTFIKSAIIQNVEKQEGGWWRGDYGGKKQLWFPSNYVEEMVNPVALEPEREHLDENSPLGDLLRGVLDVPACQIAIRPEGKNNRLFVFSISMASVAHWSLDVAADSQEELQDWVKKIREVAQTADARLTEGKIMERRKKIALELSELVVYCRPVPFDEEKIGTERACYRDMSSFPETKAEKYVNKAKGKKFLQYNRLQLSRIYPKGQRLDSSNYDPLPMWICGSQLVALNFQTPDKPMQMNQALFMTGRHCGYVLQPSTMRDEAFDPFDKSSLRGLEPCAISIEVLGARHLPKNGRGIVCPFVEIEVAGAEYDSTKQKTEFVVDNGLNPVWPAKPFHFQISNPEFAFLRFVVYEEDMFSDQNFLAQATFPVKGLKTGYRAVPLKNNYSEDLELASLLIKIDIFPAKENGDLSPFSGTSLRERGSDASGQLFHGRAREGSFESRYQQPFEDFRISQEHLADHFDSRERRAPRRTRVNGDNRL

[8] = molecular target: T3, Bifunctional protein GlmU (Mycobacterium tuberculosis, UniProt P9WMN3); experiment: Inhibitors of Mycobacterial Glucosamine-1-phosphate acetyl transferase (GlmU). Secondary screen.; set-up: species or system Mycobacterium tuberculosis H37Rv
T3 sequence (P9WMN3 whole entry): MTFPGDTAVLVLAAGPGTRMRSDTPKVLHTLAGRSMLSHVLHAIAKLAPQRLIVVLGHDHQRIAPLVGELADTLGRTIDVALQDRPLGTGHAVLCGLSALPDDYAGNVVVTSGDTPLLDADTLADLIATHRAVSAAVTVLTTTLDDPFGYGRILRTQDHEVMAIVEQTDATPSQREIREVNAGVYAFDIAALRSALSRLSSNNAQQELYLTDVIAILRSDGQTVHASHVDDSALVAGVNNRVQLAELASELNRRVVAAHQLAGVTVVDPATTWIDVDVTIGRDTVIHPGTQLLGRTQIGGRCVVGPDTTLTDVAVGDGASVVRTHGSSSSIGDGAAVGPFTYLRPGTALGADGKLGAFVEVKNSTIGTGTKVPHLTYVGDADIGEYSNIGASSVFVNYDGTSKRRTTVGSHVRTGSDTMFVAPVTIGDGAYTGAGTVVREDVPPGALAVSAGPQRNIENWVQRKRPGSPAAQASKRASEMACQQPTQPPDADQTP

[9] = rise of 2N DNA cells, HeLa – IC50, dose response (AID 1117349); assay type: functional, cell-based
[10] = rise of 4N DNA cells, HeLa – IC50, dose response (AID 1117351); assay type: functional, cell-based
[11] = cytotoxicity toward HT-29 cells – cell-based, CellTiter-Glo luminescence, IC50, dose response (AID 1117330); assay type: functional
[12] = Reduced DLD-1 viability, concentration-response, CellTiter-Glo luminescence (AID 1117352); assay type: functional
[13] = test system: BJ; experiment: cells; assay type: functional, cell-based; details: Homo sapiens
[14] = test system: BJ; experiment: BJ-TERT fibroblast viability loss – cell-based, RAS-independent, luminescence, dose response (AID 1933); assay type: functional; details: Homo sapiens
[15] = test system: BJ; experiment: BJ-TERT-LT-ST fibroblast viability loss – cell-based, RAS-independent, luminescence, dose response (AID 1935); assay type: functional; details: Homo sapiens;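 also: BJ fibroblasts immortalized with TERT plus LT and ST oncogenes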
[16] = test system: BJ; experiment: growth inhibition of engineered Ras-driven BJ cells – cell-based, alamar blue fluorescence, cherrypicked samples, dose response (AID 2631); assay type: functional; details: Homo sapiens;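 also: confirmatory dose-response assay in RAS-dependent BJ fibroblasts engineered with TERT, LT and ST, with cytotoxicity read by fluorescence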
[17] = DRD fibroblast viability loss – cell-based, non-viral oncogenic, luminescence, dose response (AID 1934); assay type: functional; details: Homo sapiens
[18] = HCT116 cell viability decrease, GSK3B pretreatment – CellTiter-Glo, IC50, dose response (AID 1117339); assay type: functional; details: HCT-116
[19] = cytotoxicity toward HCT116 cells – cell-based, CellTiter-Glo luminescence, IC50, dose response (AID 1117332); assay type: functional; details: HCT-116
[20] = SNU-C1 cell viability reduction, dose response, CellTiter-Glo luminescence (AID 1117323); assay type: functional, cell-based
[21] = RKO cell viability reduction, dose response, CellTiter-Glo luminescence (AID 1117322); assay type: functional

Paired box protein Pax-8, sequence (Q06710 whole entry): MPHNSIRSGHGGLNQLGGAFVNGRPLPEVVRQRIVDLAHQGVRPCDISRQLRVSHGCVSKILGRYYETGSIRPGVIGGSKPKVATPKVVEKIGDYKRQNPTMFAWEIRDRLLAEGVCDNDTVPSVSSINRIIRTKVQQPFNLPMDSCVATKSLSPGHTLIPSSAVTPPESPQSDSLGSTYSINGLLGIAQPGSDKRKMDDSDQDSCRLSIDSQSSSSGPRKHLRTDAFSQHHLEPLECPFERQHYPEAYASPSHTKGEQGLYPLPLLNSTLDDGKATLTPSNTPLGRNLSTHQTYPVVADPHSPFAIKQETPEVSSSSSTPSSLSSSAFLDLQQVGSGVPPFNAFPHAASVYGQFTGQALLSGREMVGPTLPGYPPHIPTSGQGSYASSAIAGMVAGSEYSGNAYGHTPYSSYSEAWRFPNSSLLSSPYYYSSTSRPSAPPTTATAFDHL

In the case of `COc1ccccc1C#Cc1ccc2c(c1)O[C@H](CN(C)Cc1ccncc1)[C@@H](C)CN([C@@H](C)CO)S2(=O)=O`, the AC50 [1] is reported as 25.9 µM (active), the AC50 [2] is reported as 38.1 µM (active) and the AC50 [3] is reported as 61.5 µM (active). The AC50 [4] was 10.9 µM (active) and the AC50 [5] was 57.8 µM (active).
In the case of `CCNC(=O)C[C@H]1CC[C@H]2[C@@H](COc3ccc(NC(=O)c4ccc5c(c4)OCO5)cc3C(=O)N2C)O1`, the IC50 [6] is reported as 45.1 µM (inactive) and the IC50 [7] is reported as 47.8 µM (inactive).
In the case of `Cc1ccc(OCC(=O)N/N=C\c2ccc(-c3cccc(C(=O)O)c3)o2)c(C)c1`, the IC50 [8] is reported as 137 µM (active).
With `Cn1cnc([N+](=O)[O-])c1Sc1ncnc2[nH]cnc12` [AZATHIOPRINE] the IC50 [9] was > 10 µM (inactive), the IC50 [10] was > 10 µM (inactive) and the IC50 [11] was > 20 µM (inactive). The IC50 [12] was 0.364 µM (active), the EC50 [13] was 5.04 µM (inconclusive) and the EC50 [14] was > 150 µM (not active). The EC50 [15] was > 150 µM (not active), the EC50 [16] was > 133 µM (inactive) and the EC50 [17] was 2.9 µM (active). For the same molecule, the IC50 [18] was 0.623 µM (active), the IC50 [19] was 0.207 µM (active) and the IC50 [20] was > 20 µM (inactive). For the same molecule, the IC50 [21] was 2.66 µM (active).
With `CCCCCCCCCCCCNCCNCCNCC(=O)O` [DODICIN] the IC50 [9] was > 10 µM (inactive) and the IC50 [10] was > 10 µM (inactive).
